In patent publication US20260209175A1, “PHARMACEUTICALLY ACCEPTABLE 5-METHOXY-N,N-DIMETHYL[…] AND COMPOSITIONS THEREOF” (priority 2022, published 2026):
Where a name gives a salt, the structure may show the parent alone.

What was measured:
[1] = Thermo-Gravimetric Analysis (TGA), thermal stability; format: physicochemical; settings: 10° C./min ramp; for thermally stable up to (TGA): nitrogen
Method: TGA thermograms were obtained with a TA Instrument Discovery 550 in Al pans. The heating rate used was 10° C./min linear ramp from 25 to 400° C. with a nitrogen purging at a rate of 60 ml/min. TGA thermograms were analysed using TRIOS software.

[2] = Dynamic Vapor Sorption (DVS) analysis of salts, with XRPD of the post-DVS sample; format: physicochemical; settings: for sorption/desorption behaviour (reversibility, hysteresis): DVS isotherm; for deliquescence during DVS: high RH
Method: XRPD diffractograms were acquired using Bruker D2 Phaser diffractometer equipped with LYNXEYE detector. Samples were prepared using a zero-background sample holder. The samples were scanned from 5 to 32° (2θ) using a step size of 0.02° and a time per step of 0.13 second whilst spinning the sample. Diffractograms were plotted using the EVA program from Bruker.
DVS analyses were performed on TA Instrument DVS Q5000. Samples were added to a pre-tared metallised quartz crucible and run at 25° C. from 40% RH to 90% RH, down to zero and back to 40%. This cycle was repeated in increments of 10% RH.

[3] = Polymorphism screen of hydrochloride salt (thermal cycling, evaporations), XRPD; format: physicochemical; settings: for XRPD Result: lyophilised hydrochloride salt, thermally cycled between ambient and 40° C., three days
Method: To render the material amorphous and thus remove seeds of the pattern 1 the material was rendered amorphous. To 2.605 g of the hydrochloride lot RPI-014-022 dioxane (55 ml) and water (5 ml) was added. The mixture was agitated gently and warmed to aid dissolution.
Twenty five of the lyophilised samples were treated with solvent and thermally cycled between ambient and 40° C. with four hours spent under each condition. After three days and solids were isolated by centrifuge filtration and analysed by XRPD.
Twelve samples of the lyophilised material were treated with a minimal volume (ca 0.5 ml) of warm solvent, syringe filtered through a 0.22 µm filter and added to a clean HPLC vial and allowed to evaporate at RT. The solvents used and XRPD results following evaporation are detailed in the Table below: […]

[4] = Solubility assessments in four different media; format: physicochemical; settings: 250 mg per vial; for Observation: 1 ml media at 37° C.
Method: Solubility assessments of 5-MeO-DMT oxalate, hydrobromide fumarate and benzoate were performed in four different media: […]

[5] = format: physicochemical; settings: 40° C./75% RH, three days
Method: Salt screening studies with 24 selected counter-ions were performed to determine if 5-MeO-DMT free base is amenable to salt formation. […] Salts were examined by XRPD, TGA, DSC, 1H NMR and some by DVS analyses. Short term physical stability was examined by storage of salts at 40° C./75% RH for three days.
Physical stability stress tests were conducted on generated crystalline salts at controlled temperature and relative humidity. The powder samples were stored at 40° C./75% RH for three days. After this time samples were analysed by XRPD to see whether the physical state of salts changed during the storage.

COc1ccc2[nH]cc(CCN(C)C)c2c1 [Benzenesulfonate salt, 5-MeO-DMT benzenesulfonate]
thermally stable up to (TGA) [1]: 250 °C | total water (moisture) uptake between 0% RH and 90% RH ([2]; 25° C): approximately 21 % w/w | sorption/desorption behaviour (reversibility, hysteresis) ([2]; 25° C): hysteresis between 40-80% RH | water uptake up to 60% RH ([2]; first sorption isotherm): 1.2 % w/w | moisture absorption at 70% RH ([2]; first sorption isotherm): 7 % w/w | moisture absorption at 80% RH ([2]; first sorption isotherm): 14 % w/w | deliquescence during DVS [2]: begins to deliquesce

COc1ccc2[nH]cc(CCN(C)C)c2c1.Cl [DJP2202-007-02]
XRPD Result ([3]; 1-Propanol): Pattern 1

COc1ccc2[nH]cc(CCN(C)C)c2c1.Cl [DJP2202-007-03]
XRPD Result ([3]; 2-Butanol): Pattern 1

COc1ccc2[nH]cc(CCN(C)C)c2c1.Cl [DJP2202-007-05]
XRPD Result ([3]; 2-Methyltetrahydrofuran): Pattern 1

COc1ccc2[nH]cc(CCN(C)C)c2c1.Cl [DJP2202-007-06]
XRPD Result ([3]; 2-Propanol): Pattern 1

COc1ccc2[nH]cc(CCN(C)C)c2c1.Cl [DJP2202-007-07]
XRPD Result ([3]; Acetone): Pattern 1

COc1ccc2[nH]cc(CCN(C)C)c2c1.Cl [DJP2202-007-08]
XRPD Result ([3]; Acetonitrile): Pattern 1

COc1ccc2[nH]cc(CCN(C)C)c2c1.Cl [DJP2202-007-09]
XRPD Result ([3]; Anisole): Pattern 1

COc1ccc2[nH]cc(CCN(C)C)c2c1.Cl [DJP2202-007-10]
XRPD Result ([3]; Chlorobenzene): Pattern 1

COc1ccc2[nH]cc(CCN(C)C)c2c1.Cl [DJP2202-007-11]
XRPD Result ([3]; Ethanol): Pattern 1

COc1ccc2[nH]cc(CCN(C)C)c2c1.Cl [DJP2202-007-12]
XRPD Result ([3]; Ethyl acetate): Pattern 1

COc1ccc2[nH]cc(CCN(C)C)c2c1.Cl [DJP2202-007-13]
XRPD Result ([3]; Isopropyl acetate (experiment 007-13)): Pattern 1

COc1ccc2[nH]cc(CCN(C)C)c2c1.Cl [DJP2202-007-15]
XRPD Result ([3]; Propyl acetate): Pattern 1

COc1ccc2[nH]cc(CCN(C)C)c2c1.Cl [DJP2202-007-16]
XRPD Result ([3]; Methylethyl ketone): Pattern 2

COc1ccc2[nH]cc(CCN(C)C)c2c1.Cl [DJP2202-007-20]
XRPD Result ([3]; iso-Propyl acetate (experiment 007-20)): Pattern 1

COc1ccc2[nH]cc(CCN(C)C)c2c1.Cl [DJP2202-007-21]
XRPD Result ([3]; 2-Me-1-PrOH): Pattern 1

COc1ccc2[nH]cc(CCN(C)C)c2c1.Cl [DJP2202-007-22]
XRPD Result ([3]; Tetrahydrofuran): Pattern 1

COc1ccc2[nH]cc(CCN(C)C)c2c1 [Fumarate salt, 5-MeO-DMT fumarate]
pH after addition of 1 ml media at 37° C. ([4]; SNF): 5.14 | Observation ([4]; SNF): Clear solution | pH after addition of 1 ml media at 37° C. ([4]; pH 1.2 buffer): 5.24 | Observation ([4]; pH 1.2 buffer): Clear solution | pH after addition of 1 ml media at 37° C. ([4]; pH 4.5 buffer): 5.31 | Observation ([4]; pH 4.5 buffer): Clear solution | pH after addition of 1 ml media at 37° C. ([4]; pH 6.8 buffer): 5.79 | Observation ([4]; pH 6.8 buffer): Clear solution | thermally stable up to (TGA) [1]: 150 °C | mass difference between 40% RH and 0% RH ([2]; salt produced during scale-up): ~ 2.84% | solid form after DVS (XRPD post DVS) ([2]; salt produced during scale-up): a change in crystalline form occurred

COc1ccc2[nH]cc(CCN(C)C)c2c1.Cl [Hydrochloride pattern 2, 5-MeO-DMT hydrochloride]
onset of decomposition / mass loss (TGA) ([1]; hydrochloride): around 256 °C

COc1ccc2[nH]cc(CCN(C)C)c2c1.Cl [Hydrochloride pattern 3, 5-MeO-DMT hydrochloride]
onset of decomposition / mass loss (TGA) ([1]; hydrochloride): around 260 °C

COc1ccc2[nH]cc(CCN(C)C)c2c1 [Ketoglutarate salt, 5-MeO-DMT ketoglutarate]
water uptake at 40% RH ([2]; first sorption isotherm, 40% RH): 0.13 % w/w | moisture absorption at 80% RH ([2]; first sorption isotherm): 2.55 % w/w | water uptake at 90% RH ([2]; first sorption isotherm, 90% RH): 28.14 % w/w | deliquescence during DVS [2]: deliquesce at high RH

COc1ccc2[nH]cc(CCN(C)C)c2c1.O=C(O)CC(O)C(=O)O [Malate salt, 5-MeO-DMT malate]
thermally stable up to (TGA) [1]: around 170 °C | crystalline form by XRPD after storage [5]: conversion to a “gum” material

COc1ccc2[nH]cc(CCN(C)C)c2c1 [Phosphate salt, 5-MeO-DMT phosphate]
crystalline form by XRPD after storage [5]: did not undergo any transformation | total reversible mass change between 0-90% RH ([2]; Example 3 Pattern 1 batches, listed as 5-MeO-DMT Phosphate Pattern 1): 0.3 wt. %

COc1ccc2[nH]cc(CCN(C)C)c2c1 [Saccharinate salt, 5-MeO-DMT saccharinate]
thermally stable up to (TGA) [1]: 200 °C

COc1ccc2[nH]cc(CCN(C)C)c2c1 [Tosylate salt, 5-MeO-DMT tosylate]
crystalline form by XRPD after storage [5]: identical XRPD pattern | total water (moisture) uptake between 0% RH and 90% RH ([2]; 25° C): approximately 1.9 % w/w | sorption/desorption behaviour (reversibility, hysteresis) ([2]; 25° C): reversibly without hysteresis | hygroscopicity classification ([2]; salt screen / scale-up batches, DVS at 25° C): slightly hygroscopic (Pharmaceuticals that pick up between 0.2% and 2.0% moisture at 80% RH are considered slightly hygroscopic) | solid form after DVS (XRPD post DVS) ([2]; salt screen batches): did not undergo any solid-state changes

COc1ccc2[nH]cc(CCN(C)C)c2c1.O=C(O)c1ccccc1 [benzoate salt pattern 2, 5-MeO-DMT benzoate]
thermally stable up to (TGA) [1]: ~ 170 °C

COc1ccc2[nH]cc(CCN(C)C)c2c1.O=C(O)c1ccccc1 [benzoate salt pattern 3, 5-MeO-DMT benzoate]
onset of decomposition / mass loss (TGA) [1]: approximately 190 °C

COc1ccc2[nH]cc(CCN(C)C)c2c1.O=C(O)c1ccccc1 [benzoate salt pattern 4, 5-MeO-DMT benzoate]
onset of decomposition / mass loss (TGA) [1]: ~ 190 °C | thermally stable up to (TGA) [1]: ~ 190 °C

COc1ccc2[nH]cc(CCN(C)C)c2c1 [free base, 5-methoxy-N,N-dimethyltryptamine]
thermally stable up to (TGA) [1]: 150 °C

COc1ccc2[nH]cc(CCN(C)C)c2c1 [glycolate salt, 5-MeO-DMT glycolate]
thermally stable up to (TGA) [1]: around 155 °C | total moisture uptake between 0% RH and 90% RH, 1st cycle ([2]; 25° C, 1st cycle): approximately 62 % w/w | total moisture uptake between 0% RH and 90% RH, 2nd cycle ([2]; 25° C, 2nd cycle): ~59 % w/w | sorption/desorption behaviour (reversibility, hysteresis) ([2]; 25° C): hysteresis between 40-80% RH | water uptake up to 60% RH ([2]; first sorption isotherm): 2.3 % w/w | moisture absorption at 70% RH ([2]; first sorption isotherm): 11 % w/w | moisture absorption at 80% RH ([2]; first sorption isotherm): 33 % w/w | deliquescence during DVS [2]: begins to deliquesce

COc1ccc2[nH]cc(CCN(C)C)c2c1.Cl [hydrochloride salt, 5-MeO-DMT hydrochloride]
thermally stable up to (TGA) [1]: ~ 235 °C | XRPD Results ([3]; evaporation at RT of lyophilised material from 1-PrOH, DJP2202-011-02): Pattern 1 | XRPD Results ([3]; evaporation at RT of lyophilised material from EtOH, DJP2202-011-05): Pattern 1 | XRPD Results ([3]; evaporation at RT of lyophilised material from IPA, DJP2202-011-06): Pattern 1 | XRPD Results ([3]; evaporation at RT of lyophilised material from MEK, DJP2202-011-11): Pattern 1 | XRPD Results ([3]; evaporation at RT of lyophilised material from MeCN, DJP2202-011-12): Oil
